Reference: patent US20130172246A1, “INSULIN GLARGINE VERSUS METFORMIN FOR THE FIRST-LINE TREATMENT OF EARLY TYPE-2 DIABETES” (priority 2011, published 2013)

Tested on: type 2 diabetes patients
Assay: Laboratory analyses in the clinical trial: HbA1c, plasma glucose, lipids, hsCRP
Format: in vivo, human
Details: for HbA1c level at end of study: after 36 weeks of treatment, GLA vs. MET n.s.; for HbA1c level at start of study: baseline value of the 'x to y' pair; for Triglycerides - change / HDL - change / HbA1c - change / LDL - change / Plasma glucose - change, 2 h after test meal / Plasma glucose - change, Fasting / Total chol. - change / hsCRP - change / Triglycerides - visit 8 / HDL - visit 8 / HbA1c - visit 8 / LDL - visit 8 / Plasma glucose - visit 8, 2 h after test meal / Plasma glucose - visit 8, Fasting / Total chol. - visit 8 / hsCRP - 8th visit: per protocol, mean (SD); for Triglycerides - change / HDL - change / HbA1c - change / LDL - change / Plasma glucose - change, 2 h after test meal / Plasma glucose - change, Fasting / Total chol. - change / hsCRP - change: change visit 1 to visit 8; for HDL - change / HbA1c - change / LDL - change / Plasma glucose - change, 2 h after test meal / Plasma glucose - change, Fasting / Total chol. - change / hsCRP - change / HDL - visit 8 / HbA1c - visit 8 / LDL - visit 8 / Plasma glucose - visit 8, 2 h after test meal / Plasma glucose - visit 8, Fasting / Total chol. - visit 8 / hsCRP - 8th visit: unit as in Table 4; for Triglycerides - visit 8 / HDL - visit 8 / HbA1c - visit 8 / LDL - visit 8 / Plasma glucose - visit 8, 2 h after test meal / Plasma glucose - visit 8, Fasting / Total chol. - visit 8 / hsCRP - 8th visit: week 36; for reduction in the FPG level (Δ): start to end of study (36 weeks), GLA vs. MET p<0.001
Description: Test meal: On the morning of the 2nd day of the CGM, there is a standardized test meal in the trial center. This test meal (TM) consists of 95 g of whole-wheat bread, 20 g of margarine, 25 g of fruit preserves, 25 g of cheese, 200 ml of orange juice, 200 ml of milk mix with banana, strawberry or cocoa with a total of 560 Kcal. Blood is taken from the patient prior to the TM (after night-time fasting period of at least 8 hours). […] From the 1st bite, the time is measured, and after 2 h have elapsed, a 2nd blood collection is performed. During the TM and during the two hours thereafter, the patient should move as little as possible so as not to falsify the monitoring.
Fasting blood is collected between 7 and 9 o'clock in the morning when the patient turns up at the center.
Laboratory analyses: The blood samples for the clinical laboratory tests are analyzed in the central laboratory and the local laboratories according to standardized conditions. The central laboratory and the local laboratories provide on request corresponding documentation (e.g., normal value tables, round-robin test certificates in accordance with RiLiBÄK (Guidelines of the German Medical Association)) for the trial master file. The central laboratory is responsible for the collection, transport and analysis of the blood samples and instructs the trial center on sample management.
The patients were treated with either metformin (MET, 1000 mg b.i.d. (n=3)) or insulin glargine (GLA) q.d. just before bedtime (n=3). […] At the start and end of the study, the HbA1c level and the plasma glucose, proinsulin and C-peptide concentrations were determined. […] All the patients received a standardized test meal on the second day of the continuous glucose monitoring for comparison of the interindividual postprandial (pp) glucose excursions.

In the case of Insulin glargine, the “HbA1c level at end of study” value is reported as 6.4%, the “HbA1c level at start of study” value is reported as 7.2% and the “control of the fasting glucose level and of the overall glycemic situation” value (early treatment, compared to standard treatment with MET) is reported as “more effective control”. For the same compound, the Triglycerides - change was −0.2 (1.8) mmol/l, the HDL - change was 0.1 (0.2) mmol/l and the HbA1c - change was −0.8 (0.7) %. The LDL - change was −0.1 (0.7) mmol/l, the “Plasma glucose - change, 2 h after test meal” value was −2.8 (3.2) mmol/l and the “Plasma glucose - change, Fasting” value was −3.1 (2.5) mmol/l. The “Total chol. - change” value was −0.04 (0.8) mmol/l, the hsCRP - change was 0.1 (3.0) mg/l and the “Triglycerides - visit 8” value was 2.2 (2.0) mmol/l. The “HDL - visit 8” value was 1.3 (0.3) mmol/l, the “HbA1c - visit 8” value was 6.4 (0.4) % and the “LDL - visit 8” value was 3.1 (0.8) mmol/l. For the same compound, the “Plasma glucose - visit 8, 2 h after test meal” value was 8.3 (2.5) mmol/l, the “Plasma glucose - visit 8, Fasting” value was 6.1 (1.1) mmol/l and the “Total chol. - visit 8” value was 5.2 (1.0) mmol/l. For the same compound, the “hsCRP - 8th visit” value was 3.1 (2.9) mg/l and the “reduction in the FPG level (Δ)” value was 3.1 ± 2.5 mmol/L.
`CN(C)C(=N)N=C(N)N` [Metformin] was tested, and the “HbA1c level at end of study” value was 6.3%, the “HbA1c level at start of study” value was 6.9% and the Triglycerides - change was −0.2 (1.1) mmol/l. The HDL - change was 0.1 (0.2) mmol/l, the HbA1c - change was −0.6 (0.4) % and the LDL - change was −0.03 (0.6) mmol/l. For the same compound, the “Plasma glucose - change, 2 h after test meal” value was −1.6 (2.5) mmol/l, the “Plasma glucose - change, Fasting” value was −1.4 (1.5) mmol/l and the “Total chol. - change” value was −0.02 (0.7) mmol/l. For the same compound, the hsCRP - change was −0.2 (2.2) mg/l, the “Triglycerides - visit 8” value was 1.9 (0.8) mmol/l and the “HDL - visit 8” value was 1.3 (0.4) mmol/l. For the same compound, the “HbA1c - visit 8” value was 6.3 (0.3) %, the “LDL - visit 8” value was 3.1 (0.9) mmol/l and the “Plasma glucose - visit 8, 2 h after test meal” value was 8.4 (2.1) mmol/l. The “Plasma glucose - visit 8, Fasting” value was 7.2 (1.0) mmol/l, the “Total chol. - visit 8” value was 5.3 (1.0) mmol/l and the “hsCRP - 8th visit” value was 3.1 (5.2) mg/l. For the same compound, the “reduction in the FPG level (Δ)” value was 1.4 ± 1.5 mmol/L.
